Measurements published in patent publication US20100056524A1, “Compound” (priority 2008, published 2010).
Counter-ions that a name gives are not always drawn. Like-named read-outs stand apart in the source and are kept apart here.

Legend:
ERK8 = biological target: T1, ERK8 (Homo sapiens, UniProt Q8TD08); test: ERK8 protein kinase assay; assay type: biochemical; details: for remaining activity at 1 µM: 1 μM compound; for remaining activity at 10 µM: 10 μM compound; for residual kinase activity ERK8: 1 μm compound
T1 construct: All protein kinases were of human origin and encoded full length proteins, unless indicated otherwise; His6; made in house; host or cells: insect Sf21 cells
T1 sequence (Q8TD08 1-544): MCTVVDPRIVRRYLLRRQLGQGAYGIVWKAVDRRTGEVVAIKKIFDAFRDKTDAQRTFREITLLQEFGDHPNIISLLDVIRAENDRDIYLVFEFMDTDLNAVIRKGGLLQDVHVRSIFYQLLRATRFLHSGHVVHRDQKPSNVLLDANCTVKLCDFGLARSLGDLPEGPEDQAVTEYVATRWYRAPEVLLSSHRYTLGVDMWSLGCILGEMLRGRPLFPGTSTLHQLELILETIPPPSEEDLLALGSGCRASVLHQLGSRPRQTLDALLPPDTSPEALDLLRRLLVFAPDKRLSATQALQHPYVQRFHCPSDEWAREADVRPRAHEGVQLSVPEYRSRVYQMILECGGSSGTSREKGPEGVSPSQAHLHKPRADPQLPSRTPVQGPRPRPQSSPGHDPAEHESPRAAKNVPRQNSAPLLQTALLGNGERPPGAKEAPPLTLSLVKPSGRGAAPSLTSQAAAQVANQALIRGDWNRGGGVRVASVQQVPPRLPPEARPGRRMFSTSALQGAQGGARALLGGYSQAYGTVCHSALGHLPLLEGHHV
From the text: (§1) All protein kinases were of human origin and encoded full length proteins, unless indicated otherwise. They were either expressed as glutathione S-transferase (GST) fusion proteins in Escherichia Coli or as hexahistidine (His6)-tagged proteins in insect Sf21 cells. GST fusion proteins were purified by affinity chromatography on glutathione-Sepharose, and His6-tagged proteins on nickel/nitriloacetate-agarose. The procedures for expressing some of the protein kinases used herein have been detailed previously.^8,9 The following sections outline the DNA vectors synthesised and the procedures used to express and purifying protein kinases that have not been reported previously.
The following kinases were expressed in Sf21 cells: Aurora B and Aurora C, extra-cellular signal-regulated kinase 8 (ERK8), microtubule affinity regulating kinase 3 (MARK3), protein kinase Bα[118-480][S473D], protein kinase Bβ (PKBβ[120-481][S474D], 3-phosphoinositide-dependent protein kinase-1 [52-556]
(§2) All assays (25.5 μl) were carried out at room temperature (21° C.) and were linear with respect to time and enzyme concentration under the conditions used. Assays were performed for 30 min using Multidrop Micro reagent dispensers (Thermo Electron Corporation, Waltham, Mass. 02454, USA) in a 96-well format. The concentration of magnesium acetate in the assays was 10 mM and the [γ-33P] ATP (800 cpm/pmol) was used at 5, 20 or 50 μM as indicated, in order to be at or below the Km for ATP for each enzyme. Protein kinases assayed at 5 μM ATP were: —ERK1, ERK8, PKBα, MARK3, Aurora C. Protein kinases assayed at 20 μM ATP were: —JNK1, PDK1, CHK1, CHK2, CDK2 and Aurora B. Protein kinases assayed at 50 μM ATP were: —MNK2, IKKepsilon and TBK1.
(§3) The assays were initiated with MgATP, stopped by addition of 5 μl of 0.5 M orthophosphoric acid and spotted on to P81 filterplates using a unifilter harvester (PerkinElmer, Boston, Mass. 02118, USA). The IC50 values of inhibitors were determined after carrying out assays at 10 different concentrations of each compound.
ERK1 and ERK8 were both assayed against myelin basic protein (MBP, 0.33 mg/ml). MARK3 was assayed against the peptide […] (300 μM), MNK2 against the eIF4E protein (0.5 mg/ml). PKBβ was assayed against the peptide […] (30 μM). TBK1 were assayed against ([…]) (300 μM). The substrates used for other protein kinases were described previously.^8,9
(§4) Unless stated otherwise, enzymes were diluted in 50 mM Tris/HCl pH 7.5, 0.1 mM EGTA, 1 mg/ml BSA, 0.1% (v/v) 2-mercaptoethanol and assayed in 50 mM Tris/HCl pH 7.5, 0.1 mM EGTA, 0.1% (v/v) 2-mercaptoethanol.

PKC zeta = biological target: T2, PKC zeta (Homo sapiens, UniProt Q05513); test: PKC zeta protein kinase assay; assay type: biochemical; details: for remaining activity at 1 µM: 1 μM compound; for remaining activity at 10 µM: 10 μM compound; for residual kinase activity PKC zeta: 1 μm compound
T2 construct: All protein kinases were of human origin and encoded full length proteins, unless indicated otherwise; made in house
T2 sequence (Q05513 1-592): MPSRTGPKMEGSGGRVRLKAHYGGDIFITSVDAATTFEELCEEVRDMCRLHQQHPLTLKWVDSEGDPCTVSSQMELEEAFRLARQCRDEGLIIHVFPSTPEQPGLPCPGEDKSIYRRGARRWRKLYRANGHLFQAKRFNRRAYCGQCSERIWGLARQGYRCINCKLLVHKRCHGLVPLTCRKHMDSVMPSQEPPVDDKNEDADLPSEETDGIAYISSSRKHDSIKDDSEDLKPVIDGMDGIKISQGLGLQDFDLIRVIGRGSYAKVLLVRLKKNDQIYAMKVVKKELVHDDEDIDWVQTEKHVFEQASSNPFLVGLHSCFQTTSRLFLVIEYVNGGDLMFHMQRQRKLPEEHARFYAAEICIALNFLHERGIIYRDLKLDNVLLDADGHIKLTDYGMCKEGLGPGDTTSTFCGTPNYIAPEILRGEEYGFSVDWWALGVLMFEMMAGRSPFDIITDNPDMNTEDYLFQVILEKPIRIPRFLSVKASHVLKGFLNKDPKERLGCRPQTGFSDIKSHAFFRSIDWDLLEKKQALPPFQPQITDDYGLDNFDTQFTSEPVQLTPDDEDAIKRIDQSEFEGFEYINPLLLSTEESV
From the text: as §1, §2, §3, §4

GSK3b = biological target: T3, GSK3b (Homo sapiens, UniProt P49841); test: GSK3b protein kinase assay; assay type: biochemical; details: for remaining activity at 1 µM: 1 μM compound; for remaining activity at 10 µM: 10 μM compound; for residual kinase activity GSK3b: 1 μm compound
T3 construct: All protein kinases were of human origin and encoded full length proteins, unless indicated otherwise; made in house
T3 sequence (P49841 whole entry): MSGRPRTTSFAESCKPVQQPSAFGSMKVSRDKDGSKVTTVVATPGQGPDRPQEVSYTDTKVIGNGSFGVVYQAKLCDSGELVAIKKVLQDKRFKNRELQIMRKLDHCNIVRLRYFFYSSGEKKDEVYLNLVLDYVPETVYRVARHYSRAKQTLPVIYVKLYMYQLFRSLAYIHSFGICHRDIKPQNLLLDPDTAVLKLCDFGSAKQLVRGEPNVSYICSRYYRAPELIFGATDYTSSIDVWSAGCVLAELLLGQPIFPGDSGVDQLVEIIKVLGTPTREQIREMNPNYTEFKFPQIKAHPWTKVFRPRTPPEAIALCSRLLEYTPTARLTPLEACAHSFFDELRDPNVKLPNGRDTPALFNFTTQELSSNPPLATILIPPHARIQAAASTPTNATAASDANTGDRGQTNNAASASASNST
From the text: as §1, §2, §3, §4

[1] = test system: panel of different kinases; test: Selectivity across kinase panel (Gini coefficient); assay type: biochemical, human; details: for GINI Coefficient: value between 0 and 1, higher = more selective
From the text: Table compares the activity of Example 23 with cyclobutanecarboxylic acid {3-[5-bromo-2-(3-fluoro-phenylamino)-pyrimidin-4-ylamino]-propyl}-amide (Compound A)^13, against a panel of different kinases, where the residual kinase activity, in %, at two concentrations of the compounds is expressed. The higher the percentage residual activity, the lower the degree of inhibition of the kinase.

[2] = ERK8, 5 μM ATP, read-out: residual kinase activity
[3] = PKC zeta, read-out: residual kinase activity
[4] = GSK3b, read-out: residual kinase activity
[5] = read-out: residual kinase activity ERK8
[6] = read-out: residual kinase activity PKC zeta
[7] = read-out: residual kinase activity GSK3b

`O=C(NCCCNc1nc(Nc2cccc(N3CCCC3=O)c2)ncc1C1CC1)c1cccs1` [Example 47, Thiophene-2-carboxylic acid (3-{5-cyclopropyl-2-[3-(2-oxo-pyrrolidin-1-yl)-phenylamino]-pyrimidin-4-ylamino}-propyl)-amide. Hydrochloride salt] gave a remaining activity at 1 µM (ERK8; [2]) of 33%, a remaining activity at 10 µM (ERK8; [2]) of 10% and a remaining activity at 1 µM (PKC zeta; [3]) of 80%. It also gave a remaining activity at 10 µM (PKC zeta; [3]) of 78%, a remaining activity at 1 µM (GSK3b; [4]) of 73% and a remaining activity at 10 µM (GSK3b; [4]) of 31%.
`O=C(NCCCNc1nc(Nc2cccnc2)ncc1C1CC1)c1cccs1` [Example 50, Thiophene-2-carboxylic acid {3-[5-cyclopropyl-2-(pyridin-3-ylamino)-pyrimidin-4-ylamino]-propyl}-amide] gave a remaining activity at 1 µM (ERK8; [2]) of 13%, a remaining activity at 10 µM (ERK8; [2]) of 5% and a remaining activity at 1 µM (PKC zeta; [3]) of 84%. It also gave a remaining activity at 10 µM (PKC zeta; [3]) of 73%, a remaining activity at 1 µM (GSK3b; [4]) of 52% and a remaining activity at 10 µM (GSK3b; [4]) of 19%.
For `O=C(NCCCNc1nc(Nc2cccc(F)c2)ncc1Br)C1CCC1` [Compound A, cyclobutanecarboxylic acid {3-[5-bromo-2-(3-fluoro-phenylamino)-pyrimidin-4-ylamino]-propyl}-amide, reference compound], the “GINI Coefficient” value ([1]; @ 10 μM) was 0.19, the GINI Coefficient ([1]; in words) was “significantly lower value than Example 23” and the remaining activity at 10 µM (ERK8; [5]) was 3%. The “residual kinase activity ERK8” value (ERK8) was 9%, the remaining activity at 10 µM (PKC zeta; [6]) was 42% and the “residual kinase activity PKC zeta” value (PKC zeta) was 90%. For the same molecule, the remaining activity at 10 µM (GSK3b; [7]) was 4% and the “residual kinase activity GSK3b” value (GSK3b) was 23%.
`O=C(NCCCNc1nc(Nc2cccc(F)c2)ncc1C1CC1)C1CCC1` [Example 23, Cyclobutanecarboxylic acid {3-[5-cyclopropyl-2-(3-fluoro-phenylamino)-pyrimidin-4-ylamino]-propyl}-amide] was tested, and the “GINI Coefficient” value ([1]; @ 10 μM) was 0.35, the “selectivity across kinase panel” value ([1]; in words) was “significant improvement of selectivity across this kinase panel” and the remaining activity at 10 µM (ERK8; [5]) was 6%. For the same molecule, the “residual kinase activity ERK8” value (ERK8) was 14%, the remaining activity at 1 µM (ERK8; [2]) was 14% and the remaining activity at 10 µM (ERK8; [2]) was 6%. The remaining activity at 10 µM (PKC zeta; [6]) was 89%, the “residual kinase activity PKC zeta” value (PKC zeta) was 99% and the remaining activity at 1 µM (PKC zeta; [3]) was 99%. The remaining activity at 10 µM (PKC zeta; [3]) was 89%, the remaining activity at 10 µM (GSK3b; [7]) was 20% and the “residual kinase activity GSK3b” value (GSK3b) was 53%. It also gave a remaining activity at 1 µM (GSK3b; [4]) of 53% and a remaining activity at 10 µM (GSK3b; [4]) of 20%.
